# Assay results as given in patent US9993494B2, “Compositions and methods for treating fibrotic disease” (eFFECTOR Therapeutics, Inc., priority 2014, dated 2018).
# Test system: normal human lung fibroblasts
# Assay: Ribosomal profiling: translational efficiency in TGFβ-treated fibroblasts
# Format: cell-based
# Details: TGFβ-treated fibroblasts
# Experimental: Ribosomal profiling allows for measurement of changes in transcription and translation on a genome-wide basis accompanying TGFβ-dependent transformation of fibroblasts to myofibroblasts. Ribosomal profiles of the TGFβ-treated fibroblasts from Example 1 (about 6×10^6 cells/10 cm plate) were prepared and analyzed for changes in translational efficiencies with respect to potential disease-associated cellular changes accompanying this TGFβ-induced transformation.
# Briefly, cells were washed with cold PBS supplemented with cycloheximide and lysed with 1× mammalian cell lysis buffer for 10 minutes on ice. Lysates were clarified by centrifugation for 10 minutes at 14,000 rpm and supernatants were collected. Cell lysates were processed to generate ribosomal protected fragments and total mRNA according to the instructions included with the ARTseq Ribosome Profiling Kit (Illumina, San Diego, Calif.). Sequencing of total RNA (RNA) and of ribosome-protected fragments of RNA (RPF) was carried out using RNA-Seq methodology according to the manufacturer's instructions (Illumina). To analyze the ribosomal profiles, RNA-Seq reads were processed with tools from the FASTX-Toolkit (fastq_quality_trimmer, fastx_clipper and fastx_trimmer). Unprocessed and processed reads were evaluated for a variety of quality measures using FastQC, and processed reads were mapped to the human genome using TopHat (see, e.g., Trapnell et al., Bioinformatics 25:1105, 2009). Gene-by-gene assessment of the number of fragments strictly and uniquely mapping to the coding region of each gene was conducted using HTSeq-count, a component of the HTSeq package. […] Genes with low counts in either RPF or RNA were excluded from differential analyses. Pathway and network analyses of differential data were conducted using Ingenuity Pathway Analysis (IPA).
structure (smiles),measurement,setting,value
"Cc1ccc(=O)n(-c2ccccc2)c1 [pirfenidone, 5-methyl-1-phenylpyridin-2-one]",effect in renormalizing the translational profile of the gene,gene RPS6KA5 (ENSG00000100784),− (− = <0.9)
same,effect in renormalizing the translational profile of the gene,gene RPS7 (ENSG00000171863),− (− = <0.9)
same,effect in renormalizing the translational profile of the gene,gene RPS8 (ENSG00000142937),+ (+ = 0.9 to 1.5)
same,effect in renormalizing the translational profile of the gene,gene RPS9 (ENSG00000170889),+ (+ = 0.9 to 1.5)
same,effect in renormalizing the translational profile of the gene,gene RPS10 (ENSG00000124614),+ (+ = 0.9 to 1.5)
same,effect in renormalizing the translational profile of the gene,gene RPS11 (ENSG00000142534),− (− = <0.9)
same,effect in renormalizing the translational profile of the gene,gene RPS12 (ENSG00000112306),− (− = <0.9)
same,effect in renormalizing the translational profile of the gene,gene RPS13 (ENSG00000110700),− (− = <0.9)
same,effect in renormalizing the translational profile of the gene,gene RPS14 (ENSG00000164587),− (− = <0.9)
same,effect in renormalizing the translational profile of the gene,gene RPS15 (ENSG00000115268),+ (+ = 0.9 to 1.5)
same,effect in renormalizing the translational profile of the gene,gene RPS15A (ENSG00000134419),+ (+ = 0.9 to 1.5)
same,effect in renormalizing the translational profile of the gene,gene RPS16 (ENSG00000105193),+ (+ = 0.9 to 1.5)
same,effect in renormalizing the translational profile of the gene,gene RPS18 (ENSG00000231500),+ (+ = 0.9 to 1.5)
same,effect in renormalizing the translational profile of the gene,gene RPS19 (ENSG00000105372),+ (+ = 0.9 to 1.5)
same,effect in renormalizing the translational profile of the gene,gene RPS20 (ENSG00000008988),− (− = <0.9)
same,effect in renormalizing the translational profile of the gene,gene RPS21 (ENSG00000171858),− (− = <0.9)
same,effect in renormalizing the translational profile of the gene,gene RPS23 (ENSG00000186468),− (− = <0.9)
same,effect in renormalizing the translational profile of the gene,gene RPS24 (ENSG00000138326),− (− = <0.9)
same,effect in renormalizing the translational profile of the gene,gene RPS25 (ENSG00000118181),− (− = <0.9)
same,effect in renormalizing the translational profile of the gene,gene RPS26 (ENSG00000197728),− (− = <0.9)
same,effect in renormalizing the translational profile of the gene,gene RPS27 (ENSG00000177954),+ (+ = 0.9 to 1.5)
same,effect in renormalizing the translational profile of the gene,gene RPS27A (ENSG00000143947),− (− = <0.9)
same,effect in renormalizing the translational profile of the gene,gene RPS28 (ENSG00000233927),+ (+ = 0.9 to 1.5)
same,effect in renormalizing the translational profile of the gene,gene RPS29 (ENSG00000213741),+ (+ = 0.9 to 1.5)
same,effect in renormalizing the translational profile of the gene,gene RPSA (ENSG00000168028),− (− = <0.9)
same,effect in renormalizing the translational profile of the gene,gene RTN2 (ENSG00000125744),− (− = <0.9)
same,effect in renormalizing the translational profile of the gene,gene SEMA3A (ENSG00000075213),− (− = <0.9)
same,effect in renormalizing the translational profile of the gene,gene SGIP1 (ENSG00000118473),− (− = <0.9)
same,effect in renormalizing the translational profile of the gene,gene SH3BGR (ENSG00000185437),− (− = <0.9)
same,effect in renormalizing the translational profile of the gene,gene SHC3 (ENSG00000148082),− (− = <0.9)
same,effect in renormalizing the translational profile of the gene,gene SLC2A12 (ENSG00000146411),− (− = <0.9)
same,effect in renormalizing the translational profile of the gene,gene SLC7A7 (ENSG00000155465),− (− = <0.9)
same,effect in renormalizing the translational profile of the gene,gene SLC15A3 (ENSG00000110446),− (− = <0.9)
same,effect in renormalizing the translational profile of the gene,gene SLC25A6 (ENSG00000169100),+ (+ = 0.9 to 1.5)
same,effect in renormalizing the translational profile of the gene,gene SLC40A1 (ENSG00000138449),++ (++ = 1.5 to 2.0)
same,effect in renormalizing the translational profile of the gene,gene SMO (ENSG00000128602),− (− = <0.9)
same,effect in renormalizing the translational profile of the gene,gene SNRPA (ENSG00000077312),− (− = <0.9)
same,effect in renormalizing the translational profile of the gene,gene SOX5 (ENSG00000134532),− (− = <0.9)
same,effect in renormalizing the translational profile of the gene,gene SOX6 (ENSG00000110693),+ (+ = 0.9 to 1.5)
same,effect in renormalizing the translational profile of the gene,gene SPATA6 (ENSG00000132122),+ (+ = 0.9 to 1.5)
same,effect in renormalizing the translational profile of the gene,gene STAMBPL1 (ENSG00000138134),+ (+ = 0.9 to 1.5)
same,effect in renormalizing the translational profile of the gene,gene STS (ENSG00000101846),+ (+ = 0.9 to 1.5)
same,effect in renormalizing the translational profile of the gene,gene SYNE2 (ENSG00000054654),− (− = <0.9)
same,effect in renormalizing the translational profile of the gene,gene TAF1D (ENSG00000166012),+ (+ = 0.9 to 1.5)
same,effect in renormalizing the translational profile of the gene,gene TDG (ENSG00000139372),− (− = <0.9)
same,effect in renormalizing the translational profile of the gene,gene TEN1 (ENSG00000257949),− (− = <0.9)
same,effect in renormalizing the translational profile of the gene,gene TET2 (ENSG00000168769),− (− = <0.9)
same,effect in renormalizing the translational profile of the gene,gene TET3 (ENSG00000187605),− (− = <0.9)
same,effect in renormalizing the translational profile of the gene,gene TGFBI (ENSG00000120708),− (− = <0.9)
same,effect in renormalizing the translational profile of the gene,gene THBS3 (ENSG00000169231),+ (+ = 0.9 to 1.5)
same,effect in renormalizing the translational profile of the gene,gene THG1L (ENSG00000113272),− (− = <0.9)
same,effect in renormalizing the translational profile of the gene,gene TIMM9 (ENSG00000100575),− (− = <0.9)
same,effect in renormalizing the translational profile of the gene,gene TKT (ENSG00000163931),+ (+ = 0.9 to 1.5)
same,effect in renormalizing the translational profile of the gene,gene TMTC1 (ENSG00000133687),− (− = <0.9)
same,effect in renormalizing the translational profile of the gene,gene TOMM7 (ENSG00000196683),− (− = <0.9)
same,effect in renormalizing the translational profile of the gene,gene TOP2A (ENSG00000131747),− (− = <0.9)
same,effect in renormalizing the translational profile of the gene,gene TPGS1 (ENSG00000141933),− (− = <0.9)
same,effect in renormalizing the translational profile of the gene,gene TPM2 (ENSG00000198467),− (− = <0.9)
same,effect in renormalizing the translational profile of the gene,gene TPT1 (ENSG00000133112),− (− = <0.9)
same,effect in renormalizing the translational profile of the gene,gene TRERF1 (ENSG00000124496),− (− = <0.9)
same,effect in renormalizing the translational profile of the gene,gene UBA52 (ENSG00000221983),− (− = <0.9)
same,effect in renormalizing the translational profile of the gene,gene UQCRB (ENSG00000156467),− (− = <0.9)
same,effect in renormalizing the translational profile of the gene,gene UTRN (ENSG00000152818),− (− = <0.9)
same,effect in renormalizing the translational profile of the gene,gene VIM (ENSG00000026025),− (− = <0.9)
same,effect in renormalizing the translational profile of the gene,gene ZNF581 (ENSG00000171425),− (− = <0.9)
same,effect in renormalizing the translational profile of the gene,gene ZNF608 (ENSG00000168916),− (− = <0.9)
